Experimental data: ChEMBL document CHEMBL3046075, “Synthesis and antibacterial activity of novel 7-haloanilino-8-nitrofluoroquinolone derivatives” (2012)
Values after ≈ are worked out from the molar mass of the structure shown.

What was measured:
[1] = tested on: Staphylococcus aureus; experiment: Antibacterial activity against Staphylococcus aureus ATCC 6538 after 24 hr by two-fold serial dilution method; format: functional; conditions: ATCC 6538, 24 h
[2] = tested on: Staphylococcus aureus; experiment: Antibacterial activity against resistant isolates of Staphylococcus aureus after 24 hr by two-fold serial dilution method; format: functional

SMILES | MIC [1] | MIC [2]
O=C(O)c1cn(C2CC2)c2c([N+](=O)[O-])c(Nc3ccccc3F)c(F)cc2c1=O | 106 µg/mL (≈ 264 µM) | 106 µg/mL (≈ 264 µM)
O=C(O)c1cn(C2CC2)c2c([N+](=O)[O-])c(Nc3ccccc3)c(F)cc2c1=O | 11.7 µg/mL (≈ 30.5 µM) | –
O=C(O)c1cn(C2CC2)c2c([N+](=O)[O-])c(Nc3ccccc3Cl)c(F)cc2c1=O | 6.7 µg/mL (≈ 16 µM) | 6.7 µg/mL (≈ 16 µM)
O=C(O)c1cn(C2CC2)c2c([N+](=O)[O-])c(Nc3cccc(Cl)c3)c(F)cc2c1=O | 0.9 µg/mL (≈ 2.15 µM) | 7 µg/mL (≈ 16.8 µM)
O=C(O)c1cn(C2CC2)c2c([N+](=O)[O-])c(Nc3ccc(Cl)cc3)c(F)cc2c1=O | 6.7 µg/mL (≈ 16 µM) | 9.8 µg/mL (≈ 23.5 µM)
O=C(O)c1cn(C2CC2)c2c([N+](=O)[O-])c(Nc3ccc(F)c(F)c3F)c(F)cc2c1=O | 39 µg/mL (≈ 89.2 µM) | 9.8 µg/mL (≈ 22.4 µM)
O=C(O)c1cn(C2CC2)c2cc(N3CCNCC3)c(F)cc2c1=O [CIPROFLOXACIN] | 2.9 µg/mL (≈ 8.75 µM) | 1.4 µg/mL (≈ 4.23 µM)
